Test results as given in EP4623911A1, “PI4KB INHIBITORS FOR THE TREATMENT OF FATTY LIVER DISEASE” (ETH Zurich, priority 2024, dated 2025).

Experiments:
steatotic human liver = experiment: Ex vivo normothermic machine perfusion of a steatotic human liver graft
Protocol: A human liver graft was perfused for 8 days, after being discarded from all Swiss transplant centers. Use of discarded grafts was approved by local authorities (Kantonale Ethik Kommission Zürich KEK Nr. 2017-000412). […] The liver was procured with a total ischemia time of 40 min after circulatory death of the donor. It was flushed with IGL-1 solution and perfused for 2 h with Belzer MPS at 8°C. The infrahepatic vena cava was closed with a suture and the hepatic artery, portal vein, suprahepatic vena cava and common bile duct were cannulated with steel cannulas. The graft was subsequently perfused with whole blood and a custom built normothermic perfusion machine (Eshmuminov,D. et al, Nat Biotechnol 38, (2020)). Hepatic arterial pressure was controlled to be 80/50 mmHg, allowing for an average flow of 0.25 L/min. A vasodilator, epoprostenol, was automatically infused to keep arterial flow stable. Oxygenation was automatically controlled with a setpoint partial pressure of oxygen equal to 12 kPa. Portal venous flow was controlled to be at 1 L/min, resulting in a pressure of 2 mmHg on average. Further, oxygenation of portal blood was automatically regulated to achieve 65% saturation in the vena cava. Use of an electric pinch valve further allowed for pressure regulation in the vena cava, keeping a constant pressure of 0 mmHg. Glucose levels were automatically controlled by using a real-time glucose sensor (CCIT) and automated insulin infusions, keeping glucose levels at 7 mmol/L from the second day of perfusion onwards. A dialysis bypass was used to clear waste metabolites and control haematocrit levels by using a fixed dialysate influx rate of 200 mL/h and an automatically controlled outflux. Liver function was well preserved for at least 6 days and cell viability, as monitored by ATP analysis and histology, remained until the end of perfusion. After 8 days of perfusion, the liver weight decreased to 1507g (without gallbladder) and was sent for pathological examination.
Perfusate was mixed with 6 units of red blood cell concentrate (A+), 5 units of fresh frozen […], one unit of thrombocytes and 200 mL of 20% human albumin (CSL Behring). An initial bolus of 2.25 g Tazobactam and 500 mg Methylprednisolone was administered after priming. During the perfusion, 1000 U of heparin were infused per hour. Further, 2.25 g of Tazobactam, 3.36 g of ursodesoxycholic acid and 500 mg of methylprednisolone were continuously infused per day. UCB9608 was administered as a daily bolus by adding 300 µL of 50 mM solution directly to the blood reservoir, targeting a final concentration in the perfusate of 10 µM. On the first day, a larger bolus of 600 µL was given.
Adipose depots, liver pieces, differentiated iBAs, HepG2, HEK293T and HEK293-AAV cell types were homogenized in RIPA buffer (50 mM Tris-HCl pH 7.4, 150 mM NaCl, 2 mM EDTA, 1.0% Triton X100, 0.5% sodium deoxycholate) with protease inhibitors (Complete, Roche) and phosphatase inhibitors (Halt phosphatase inhibitor cocktail, ThermoFisher). The homogenates were centrifuged at 12,000×g for 10 min at 4°C to remove debris and collect whole cell extract (WCE). The concentration of WCE was determined by DC Protein Assay (Bio-Rad). After boiling the sample with Lämmeli buffer at 95°C for 5 min, equal amount of proteins was loaded and separated on 12% SDS-PAGE. […]

[1] = Indirect calorimetry in HFD-fed mice; format: in vivo; conditions: HFD mixed with UCB9608 (5 mg/kg) for 3 weeks, vs DMSO
Protocol: 8-10 weeks old C57BL/6N male mice were fed on HFD mixing with DMSO or UCB9608 (5 mg/kg) for 3 weeks before indirect calorimetry measurements were performed with Phenomaster (TSE systems) according to the manufacturer's instructions. Animals were single caged and adapted to the metabolic cage for 48h prior to metabolic recording. The energy expenditure between both groups was analyzed via ANCOVA method and RER was analyzed via two-way ANOVA method.

[2] = UCB9608 daily, target concentration 10 µM, 8 days perfusion, unchanged in two control grafts

COc1ccc(NC(=O)N2CCN(c3nc(N)nc4c3cnn4C)[C@@H](C)C2)c(C)c1 [UCB9608]
ATGL levels in human liver biopsies (steatotic human liver; [2]): substantially elevated | TG deposition in human liver biopsies (steatotic human liver; [2]): reduced | macrovesicular steatosis of the liver graft (steatotic human liver; after 8 days of perfusion, 15% before perfusion): less than 5% | bile acid excretion and oxygen consumption of the graft (steatotic human liver; during perfusion with UCB9608): normal | non-esterified fatty acids (NEFAs) from dialysate (steatotic human liver; during perfusion with UCB9608): detected | energy expenditure [1]: higher
